Data as given in US9161946B2, “Dosing methods for treating disease” (Anadys Pharmaceuticals, Inc., priority 2007, dated 2015).

Key:
Assay type in all cases: in vivo, cynomolgus macaques
[1] = system: IFN-α; test: IFN-α level in plasma after oral dosing, multiplexed immunoassay; settings: for Mean Concentration of IFN-α: oral; for IFN-α levels on the third day of the cycle: 3 on 4 off, 100 mg/kg, average±SEM, n=4
Procedure: (§1) The pharmacodynamic response of a continuous daily dosing schedule (QD) was compared to a cyclic dosing schedule of every-other-day (QOD) and a cyclic dosing schedule of 3 consecutive days of dosing followed by 4 consecutive days of resting (‘3 on 4 off’). All three dosing schedules were conducted with orally administered Compound I Tosylate. Immune parameters measured include cytokine and chemokine secretion in plasma measured by multiplexed immunoassay, neopterin levels in plasma measured by Enzyme Linked Immunosorbant Assay (ELISA), and cytotoxic T cell (CD8 T) effector proliferative state and B cell proliferative state in peripheral blood leukocytes as measured by flow cytometry analysis of Ki67 levels.
Cynomolgus macaques were given 10, 30, 100 or 300 mg/kg (Compound I equivalents) of Compound I Tosylate according to an every-other-day dosing schedule for 14 days, 28 days, or 13 weeks followed by recovery periods of various lengths. The immune response was determined by measuring cytokine and neopterin levels in plasma, as well as B cell and T cell responses in peripheral blood.
(§2) Cynomolgus macaques were given either 30 mg/kg or 100 mg/kg of Compound I as the tosylate according to a dosing schedule of 3 consecutive days of dosing followed by 4 consecutive days of resting (‘3 on 4 off’) over 3 or 8 weeks. The immune response was determined by measuring cytokine and neopterin levels in plasma, as well as B cell and T cell responses in peripheral blood.
(§3) Cynomolgus macaques were given either 30 mg/kg or 100 mg/kg of Compound I as the tosylate or 2 mg/kg 852A for 7 consecutive days of QD dosing followed by 7 days of additional monitoring. The immune response was determined by measuring cytokine and neopterin levels in plasma, as well as B cell and T cell responses in peripheral blood.

[2] = system: IL-6; test: IL-6 in plasma after 3rd dose, multiplexed immunoassay; settings: after 3rd dose of 100 mg/kg
Source text: (§4) Each point indicates an individual animal. Fine lines indicate geometric mean. * indicates significant difference (p<0.05) between pre-treatment and post-dose values; ns: not significant. Non-responders are defined as animals with baseline interferon-α values after both the 1st and 2nd doses. Three such animals were excluded in the QOD group (n=7 final). No animals were excluded from the QD group (n=20 final).
as §1, with “All three dosing schedules were conducted with orally administered Compound I Tosylate.” left out, “levels. […]” for “levels.”
as §3

[3] = system: TNF-α; test: TNF-α in plasma after 3rd dose, multiplexed immunoassay; settings: after 3rd dose of 100 mg/kg, QD (D3) versus QOD (D5)
Source text: as §4
as §1, with “All three dosing schedules were conducted with orally administered Compound I Tosylate.” left out, “levels. […]” for “levels.”
as §3

[4] = system: IL-12; test: IL-12 in plasma after 3rd dose, multiplexed immunoassay; settings: after 3rd dose of 100 mg/kg, pre-treatment subtracted, p<0.05
Source text: as §4
as §1, with “All three dosing schedules were conducted with orally administered Compound I Tosylate.” left out, “levels. […]” for “levels.”
as §3

[5] = system: MCP-1; test: MCP-1 in plasma after 3rd dose, multiplexed immunoassay; settings: after 3rd dose of 100 mg/kg, pre-treatment subtracted, p<0.05
Source text: as §4
as §1, with “All three dosing schedules were conducted with orally administered Compound I Tosylate.” left out, “levels. […]” for “levels.”
as §3

[6] = system: neopterin; test: Neopterin level in plasma, ELISA; settings: QD schedule, 7 consecutive days, FIG. 1C (100 mg/kg)
Procedure: as §1, §3

[7] = system: cytotoxic T cell (CD8 T) in peripheral blood leukocytes; test: Cytotoxic T cell (CD8 T) effector proliferative state, flow cytometry of Ki67; settings: 3 on 4 off schedule, FIG. 3B (100 mg/kg)
Procedure: as §1, §2

[8] = system: B cell in peripheral blood leukocytes; test: B cell proliferative state, flow cytometry of Ki67; settings: 3 on 4 off schedule, repeated courses, FIG. 4B (100 mg/kg)
Procedure: as §1, §2

[9] = QD schedule, 100 mg/kg per dose, p<0.05

## CC(=O)O[C@@H]1C[C@@H](CO)O[C@H]1n1c(=O)sc2cnc(N)nc21 [Compound I, 5-amino-3-(2′-O-acetyl-3′-deoxy-beta-D-ribofuranosyl)-3H-thiazolo[4,5-d]pyrimidin-2-one]
[1]; 3 on 4 off schedule, Day 1, 100 mg/kg per dose as tosylate salt, 3 hours after dosing, mean ± SEM, pre-treatment subtracted
  Mean Concentration of IFN-α: 175 ± 69 pg/mL
[1]; 3 on 4 off schedule, Day 3, 100 mg/kg per dose as tosylate salt, 3 hours after dosing, mean ± SEM, pre-treatment subtracted
  Mean Concentration of IFN-α: 4192 ± 768 pg/mL
[1]; 3 on 4 off schedule, Day 5 (resting day, no dose), 100 mg/kg per dose as tosylate salt
  Mean Concentration of IFN-α: Baseline*
[1]; 3 on 4 off schedule, Day 7 (resting day, no dose), 100 mg/kg per dose as tosylate salt
  Mean Concentration of IFN-α: Baseline*
[1]; first cycle
  IFN-α levels on the third day of the cycle: 4192±768
[1]; second cycle
  IFN-α levels on the third day of the cycle: 3832±1329
[1]; third cycle
  IFN-α levels on the third day of the cycle: 3879±1140
[1]; QD schedule, Day 1, 100 mg/kg per dose as tosylate salt, 3 hours after dosing, mean ± SEM, pre-treatment subtracted
  Mean Concentration of IFN-α: 498 ± 252 pg/mL
[1]; QD schedule, Day 3, 100 mg/kg per dose as tosylate salt, 3 hours after dosing, mean ± SEM, pre-treatment subtracted
  Mean Concentration of IFN-α: 8057 ± 1566 pg/mL
[1]; QD schedule, Day 5, 100 mg/kg per dose as tosylate salt, 3 hours after dosing, mean ± SEM, pre-treatment subtracted
  Mean Concentration of IFN-α: 2166 ± 615 pg/mL
[1]; QD schedule, Day 7, 100 mg/kg per dose as tosylate salt, 3 hours after dosing, mean ± SEM, pre-treatment subtracted
  Mean Concentration of IFN-α: 151 ± 105 pg/mL
[1]; QOD schedule, Day 1, 100 mg/kg per dose as tosylate salt, 3 hours after dosing, mean ± SEM, pre-treatment subtracted
  Mean Concentration of IFN-α: 1293 ± 513 pg/mL
[1]; QOD schedule, Day 3, 100 mg/kg per dose as tosylate salt, 3 hours after dosing, mean ± SEM, pre-treatment subtracted
  Mean Concentration of IFN-α: 1459 ± 634 pg/mL
[1]; QOD schedule, Day 5, 100 mg/kg per dose as tosylate salt, 3 hours after dosing, mean ± SEM, pre-treatment subtracted
  Mean Concentration of IFN-α: 1816 ± 1012 pg/mL
[1]; QOD schedule, Day 7, 100 mg/kg per dose as tosylate salt, 3 hours after dosing, mean ± SEM, pre-treatment subtracted
  Mean Concentration of IFN-α: 2375 ± 982 pg/mL
[2]; QD (D3) versus QOD (D5)
  IL-6 induction versus pre-treatment: significantly induced (p<0.05) by the QD, but not by the QOD schedule
[2]; pre-treatment subtracted, p<0.05
  Level of IL-6 expressed relative to IFN-α, QD compared to QOD: significantly higher
[3]
  TNF-α induction versus pre-treatment: significantly induced (p<0.05) by the QD, but not by the QOD schedule
[4]
  Level of IL-12 expressed relative to IFN-α, QD compared to QOD: significantly higher
[5]
  Level of MCP-1 expressed relative to IFN-α, QD compared to QOD: significantly higher

## CC(=O)O[C@@H]1C[C@@H](CO)O[C@H]1n1c(=O)sc2cnc(N)nc21.Cc1ccc(S(=O)(=O)O)cc1 [Compound I Tosylate]
[1]; 100 mg/kg per dose, p<0.05
  IFN-α level at day 7 for QOD higher than on day 7 for QD: 15.8 fold
[1]; 3 on 4 off schedule, day 3 in the second cycle, 100 mg/kg (Compound I equivalents)
  IFN-α levels in plasma after 6 doses: 3832±1329
[1]; QD schedule, 100 mg/kg per dose
  IFN-α response on day 7 lower than response on day 1: 3.3 fold
[1]; [9]
  IFN-α levels on day 5 compared to day 3: significantly reduced
  IFN-α levels on day 7 compared to day 3: significantly reduced
[1]; QD schedule, 7 consecutive days, FIG. 1C (100 mg/kg)
  Time of peak IFN-α level before decline: 3-4 days of dosing
[1]; QD schedule, Day 6, 100 mg/kg (Compound I equivalents)
  IFN-α levels in plasma after 6 doses: 922±739
[6]
  Time of peak neopterin level before decline: 3-4 days of dosing
[7]
  T cell responses over repeated courses: either maintained or enhanced
[8]
  B cell proliferative state as measured by Ki67 levels: enhanced
